According to patent US11513122B2, “Predicting response to PD-1 axis inhibitors” (Hoffmann-La Roche Inc., priority 2016, dated 2022):

Columns and labels:
[1] = system: patients with non-small cell lung cancer (NSCLC); assay: Phase II clinical trial POPLAR (NCT01903993), overall survival by DC gene expression; format: in vivo, human
Source text: Further to Example 3, we analyzed 193 patients with non-small cell lung cancer (NSCLC) previously treated, then received atezolizumab or docetaxel in a Phase II clinical trial POPLAR. This study is registered with ClinicalTrials.gov, number NCT01903993. POPLAR is a multicentre, randomised, open-label phase II trial, done at 61 academic medical centers and community oncology practices across 13 countries in Europe and North America. The study was done in full accordance with the guidelines for Good Clinical Practice and the Declaration of Helsinki. Protocol (and modification) approval was obtained from an independent ethics committee for each site (Fehrenbacher L, et. Al., Lancet 2016). Among those patients with squamous or non-squamous NSCLC, 96 received Docetaxel, and 92 received atezolizumab, and the rest of 5 left untreated (Table 1).
Tumor specimens at baseline were archived and taken for gene expression profiling performed by RNA Sequencing (RNA-Seq). Based on literature (Merad M. et al, Ann. Rev. Immunol. 2013), we selected a list of genes consisting of XCR1, IRF8, BATF3, and FLT3, which are associated with human dendritic cell phenotypes and development with cross-presenting specialization. Normalized read counts of each selected gene across the whole cohort were divided at medium expression level for the higher expression ones (+) and lower/no expression ones (−). Using in-house R scripts the two defined subgroups were plotted against the Kaplan-Meier survival curves. In addition, Cox-regression analysis was used to calculate the hazard ratio (HR) between the two patient groups divided based on positive and negative gene expression.
We also investigated the impact of multiple genes involved in human DC development and function (XCR1, BATF3, FLT3, and IRF8) by defining a cumulative DC gene score (DC score) reflecting the cumulative expression of these marker genes. Each gene's expression is first standardized by a z-score:
where μ and σ are estimated in the entire cohort or in the selected subgroups. After the standardization step, these standardized z-score values are averaged across genes within each patient. The cohort was corrected for the smoking status, ECOG and sex of patient. Then the score was plotted against the Kaplan-Meier survival curves.

[2] = system: patients with renal cell carcinoma; assay: Phase I clinical trial (NCT01375842), response and survival by DC gene expression; format: in vivo, human
Source text: We hypothesized that patients with DC abundance may respond to PD-L1 blockade leading to beneficial effect in patients who received the treatment. We analyzed 56 patients with renal cell carcinoma who received Atezolizumab in a Phase I clinical trial (NCT01375842) (www.clinicaltrials.gov). This study was sponsored by Genentech Inc., a member of the Roche Group, which provided the study drug. The protocol and its amendments were approved by the relevant institutional review boards or ethics committees, and all participants provided written informed consent. This study was conducted in accordance with the Declaration of Helsinki and International Conference on Harmonization Guidelines for Good Clinical Practice. In total, 56 patients were analyzed. Based on the “Best Confirmed Overall Response by the Investigator” we observed 6 responders (CR=1; PR=5) and 47 non-responder (PD=21; SD=26) as well as 3 patients without known information (FIG. 7).
Tumor specimens at baseline were archived and taken for gene expression profiling performed by RNA Sequencing (RNA-Seq). Based on literature (Merad, ann rev immunol 2013), we selected a list of genes consisting of XCR1, IRF8, BATF3 and FLT3, which are associated with human dendritic cell development with cross-presenting specialization. The log 2 RPKM expression values of each selected gene across the whole cohort were divided at medium expression level for the higher expression ones (+) and lower/no expression ones (−). Using in-house R scripts the two defined subgroups were plotted against the Kaplan-Meier survival curves. […] The medium survival between patients with higher expression versus lower/no expression were separated for at least 15.6 months or longer (FIG. 9).
As several genes linked to human dendritic cell development were associated with the survival advantages, we investigated the impact of multiple genes involved in human DC development and function by defining a cumulative DC gene score (DC score) reflecting the cumulative expression of these marker genes. Each gene's expression is first standardized by a z-score: z=(x−μ)/σ,
where μ and σ are estimated in the entire cohort or in the selected subgroups. After the standardization step, these standardized z-score values are averaged across genes within each patient. The RCC cohort was corrected for the sex of patient as well as the Stage at Initial Diagnosis.

[3] = system: MC38 cells (colorectal cancer cell lines); assay: MC38 tumor model in CD11c-DTR mice with or without DC depletion by DT; format: in vivo; conditions: MC38 s.c.; DT 100 ng at day 6; anti-PD-L1 Ab 10 mg/kg from day 7, weekly; FIG. 6B
Description: To further study the contribution of DCs by PD-L1 blockade in mediating anti-tumor immunity, we obtained the CD11c-DTR mice from the Jackson laboratory (B6.FVB-Tg(Itgax-DTR/EGFP)57Lan/J, Cat. No. 004509). […]. When tumor is palpable at day 6, mice were treated with 100 ng of DT (Sigma-Aldrich) or left untreated. At day 7, a anti-PD-L1 Ab (10 mg/kg, murine IgG1, clone 6E11, Genentech) was given to mice, followed by weekly injection (FIG. 6A). […] Our data support the concept that DCs are needed for PD-L1 Ab to achieve its maximum anti-tumor efficacy.

[4] = system: human DCs; assay: Maturation of monocyte-derived DCs by LPS, PD-1/PD-L1 staining by flow cytometry; format: cell-based; conditions: LPS 10 ng/mL, FIGS. 2A-2B
Description: To address the potential regulation of PD-1 and its ligands on human DCs, monocyte-derived DCs were generated using the classical method. Briefly, Peripheral Blood Mononuclear Cells (PBMCs) were isolated from buffy-coats (Blutspende, Schlieren) from healthy human donors, using Ficoll-Paque™ Plus (GE Healthcare, #17-1440-03) density gradient. Rings of PBMCs were collected and washed with PBS two times by centrifugation (5′ at 763 g; 5′ at 600 g). A lysis was conducted using 10 mL of BD Pharm Lyse™ (BD Biosciences, #555899) diluted at 1× with sterile water and incubated 1,5 minute at room temperature. Two washes with Phosphate-buffered saline 1× (PBS; Gibco® by live technologies™, #20012-019) were conducted by centrifugation (8′ at 135 g). Cells number and quality were evaluated using Cell counter (Beckman Coulter®). Separate unrelated donors were used for each independent experiment. Monocytes were isolated from fresh PBMCs by negative selection using Human monocyte enrichment kit (StemCell, #19059) in MACs buffer (1450 mL Automacs™ Rinsing solution, Miltenyi #130-091-222; and 75 mL MACS BSA stock Solution, Miltenyi #130-091-376) according to the manufacturer's instructions. […] The cells were then stained with anti-PD-1-PE-Cy7 and anti-PD-L1-APC Abs (BioLegend®; #329917, #329707), and measured by flow cytometry (BD). […]

[5] = NSCLC, XCR1 divided at medium expression level

In the case of CC(=O)O[C@@]12CO[C@@H]1C[C@H](O)[C@@]1(C)C(=O)[C@H](O)C3=C(C)[C@@H](OC(=O)[C@H](O)[C@@H](NC(=O)OC(C)(C)C)c4ccccc4)C[C@@](O)([C@@H](OC(=O)c4ccccc4)[C@H]21)C3(C)C [docetaxel], the “correlation of XCR1 expression to survival” value ([1]; NSCLC) is reported as “no correlation” and the “correlation of DC genes expression to survival” value ([1]; PD-L1+ patients) is reported as “no correlation”.

In the case of atezolizumab, the “separation of medium OS, higher versus lower/no XCR1 expression” value ([1]; NSCLC) is reported as roughly 7 months, the “medium overall survival (mOS), patients with higher XCR1 expression” value [1, 5] is reported as 15.5 month and the “medium overall survival (mOS), patients with lower/no XCR1 expression” value [1, 5] is reported as 8.6 month. For the same molecule, the “medium OS, patients with higher DC signature score” value ([1]; NSCLC, all patients) was 16.4 months, the “medium OS, patients with lower/no DC signature expression” value ([1]; NSCLC, all patients) was 8.5 months and the “separation of medium OS, higher versus lower/no DC signature expression” value ([1]; NSCLC, all patients) was 7.9 months. For the same molecule, the “HR, higher versus lower DC signature score” value ([1]; NSCLC, all patients, p=0.04, FIG. 11) was 0.54, the “hazard ratio (HR) by Cox-regression analysis, higher versus lower/no XCR1 expression” value ([1]; NSCLC, p=0.077) was 0.6 and the “median OS, patients with lower/no expression” value ([1]; PD-L1+ patients) was 8.4 months. For the same molecule, the “medium OS, patients with higher DC gene score” value ([1]; PD-L1+ patients) was “not reached”, the “HR, higher versus lower DC signature score” value ([1]; PD-L1+ patients (TC3, TC2, IC3, IC2), p=0.03, FIG. 12) was 0.25 and the CR ([2]; 56 patients analyzed) was 1. For the same molecule, the PD ([2]; 56 patients analyzed) was 21, the PR ([2]; 56 patients analyzed) was 5 and the non-responder ([2]; 56 patients analyzed) was 47. For the same molecule, the “responders (Best Confirmed Overall Response by the Investigator)” value ([2]; 56 patients analyzed, FIG. 7) was 6, the “HR, higher versus lower DC score” value ([2]; RCC, p=0.03, FIG. 10) was 0.38 and the “medium survival, patients with higher DC score” value ([2]; cumulative DC gene score (XCR1, IRF8, BATF3, FLT3), FIG. 10) was “without reaching medium survival”. For the same molecule, the “separation of medium survival between patients with higher expression versus lower/no expression” value ([2]; single genes XCR1, IRF8, BATF3, FLT3, FIG. 9) was “at least 15.6 months”.

For diphtheria toxin [DT], the tumor growth [3] was “did not impact the tumor growth”.

In the case of lipopolysaccharide [LPS], the “PD-1 expression on DCs upon maturation” value [4] is reported as “downregulated” and the “PD-L1 expression on DCs upon maturation” value [4] is reported as “upregulated”.
